Reference: ChEMBL document CHEMBL3632589, “Investigation of 7-benzylidenenaltrexone derivatives as a novel structural antitrichomonal lead compound” (2015)
In brackets after ≈: the same amount, converted by molar mass.

System: Trichomonas vaginalis
Experiment: Antitrichomonal activity against Trichomonas vaginalis after 48 hrs by invert microscope analysis
Format: functional

Structure (SMILES)	MIC
O=C1/C(=C/c2ccc(F)cc2)C[C@@]2(O)[C@H]3Cc4ccc(O)c5c4[C@@]2(CCN3CC2CC2)[C@H]1O5	40 µM (≈ 17.9 µg/mL)
COc1ccc(/C=C2\C[C@@]3(O)[C@H]4Cc5ccc(O)c6c5[C@@]3(CCN4CC3CC3)[C@@H](O6)C2=O)cc1	20 µM (≈ 9.19 µg/mL)
CC1(C)SSC(C)(C)[C@@H](NC(=O)[C@@H](N)Cc2ccc(O)cc2)C(=O)NCC(=O)N[C@@H](Cc2ccccc2)C(=O)N[C@H]1C(=O)O	> 320 µM
CN(C)c1ccc(/C=C2\C[C@@]3(O)[C@H]4Cc5ccc(O)c6c5[C@@]3(CCN4CC3CC3)[C@@H](O6)C2=O)cc1	20 µM (≈ 9.45 µg/mL)
O=C1/C(=C/c2ccccc2)C[C@@]2(O)[C@H]3Cc4ccc(O)c5c4[C@@]2(CCN3CC2CC2)[C@H]1O5 [BNTX]	40 µM (≈ 17.2 µg/mL)
CC(C)[C@H](NC(=O)[C@H](CCC(=O)O)NC(=O)[C@H](Cc1ccccc1)NC(=O)[C@@H](C)NC(=O)[C@@H](N)Cc1ccc(O)cc1)C(=O)N[C@H](C(=O)NCC(N)=O)C(C)C [DELTORPHIN II]	> 320 µM
Cc1ncc([N+](=O)[O-])n1CCO [METRONIDAZOLE]	5 µM (≈ 0.856 µg/mL)
Oc1ccc2c3c1O[C@H]1c4[nH]c5ccccc5c4C[C@@]4(O)[C@@H](C2)N(CC2CC2)CC[C@]314 [NALTRINDOLE]	80 µM (≈ 33.2 µg/mL)
C=CCN1C[C@H](C)N([C@H](c2ccc(C(=O)N(CC)CC)cc2)c2cccc(OC)c2)C[C@H]1C [SNC-80]	> 320 µM
